One assay deals with rats. To be noted: literature; cited from earlier work.
Another assay deals with schizophrenia. Particulars: literature, cited from earlier work; for antipsychotic effects: low doses.
Another assay has as its system dopamine receptors. To be noted: literature; cited from earlier work.
Assay [1] concerns the target T1, dopamine D-1 receptor (Rattus norvegicus, UniProt P18901). Particulars: read-out: D-1 Ki.
The target in the next assay is D-1 receptor. The experiment in a line: Adenylate cyclase assay (agonist activity, cAMP). The class given is biochemical, goldfish retina or rat striatum.
Assay [2] concerns striatal dopamine receptors. The experiment in a line: animal or person. It counts as in vivo. Particulars: Rattus norvegicus, sc, read-out: EC50, rotation behavior.
A further assay deals with T2, dopamine D-2 receptor (Rattus norvegicus, UniProt P61169).
T2 construct: Homogenized rat caudate was the source of the D-2 receptors; from tissue; host or cells: rat caudate homogenate
The experiment in a line: D-2 receptor competitive binding, [3H]-spiroperidol, homogenized rat caudate. Particulars: read-out: D-2 Ki.

Another assay has as its system Parkinson's disease. To be noted: alone, some patients; cited from earlier work.
The target of assay [3] is T1, dopamine D-1 receptor. Put plainly: biochemical.
[4] abbreviates: goldfish retina or rat striatum homogenate.

Molecules are shown by their SMILES. Counter-ions that a name gives are not always drawn. Like-named read-outs stand apart in the source and are kept apart here.

T1 sequence (P18901 whole entry): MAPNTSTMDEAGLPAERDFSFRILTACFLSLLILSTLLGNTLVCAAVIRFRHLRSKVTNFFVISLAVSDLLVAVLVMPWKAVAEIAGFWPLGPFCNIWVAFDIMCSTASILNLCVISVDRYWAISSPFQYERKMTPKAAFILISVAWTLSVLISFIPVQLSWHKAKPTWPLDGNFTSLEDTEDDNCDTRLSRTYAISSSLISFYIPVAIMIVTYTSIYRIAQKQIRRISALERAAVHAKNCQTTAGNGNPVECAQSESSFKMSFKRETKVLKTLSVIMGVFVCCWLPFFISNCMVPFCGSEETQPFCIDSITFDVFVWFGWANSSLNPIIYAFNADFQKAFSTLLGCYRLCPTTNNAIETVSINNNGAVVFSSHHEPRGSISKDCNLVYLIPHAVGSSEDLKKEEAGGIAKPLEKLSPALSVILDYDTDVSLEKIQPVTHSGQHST
T2 sequence (P61169 whole entry): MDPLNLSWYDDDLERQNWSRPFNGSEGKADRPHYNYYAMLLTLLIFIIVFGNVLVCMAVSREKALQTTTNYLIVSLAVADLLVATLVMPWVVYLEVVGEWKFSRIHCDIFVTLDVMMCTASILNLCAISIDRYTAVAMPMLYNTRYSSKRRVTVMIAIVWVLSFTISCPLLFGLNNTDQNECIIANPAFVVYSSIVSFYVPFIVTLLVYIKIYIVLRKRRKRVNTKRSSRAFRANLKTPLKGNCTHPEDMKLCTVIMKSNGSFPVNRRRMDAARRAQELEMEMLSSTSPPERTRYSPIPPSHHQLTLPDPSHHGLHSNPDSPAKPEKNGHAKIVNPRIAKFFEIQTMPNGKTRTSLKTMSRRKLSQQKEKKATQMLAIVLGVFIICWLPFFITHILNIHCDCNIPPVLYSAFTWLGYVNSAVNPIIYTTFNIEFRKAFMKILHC

Consider `Oc1cc2c(cc1O)C(c1ccccc1)CNCC2` (centres unmarked) [SKF 38393], for which the “food intake” value in the assay on rats is listed as “decrease food intake by rats”. Moreover, in the assay on schizophrenia (used in conjunction with haloperidol), the “effect on side-effects of haloperidol” value was “ameliorate the undesired side-effects of the haloperidol”.
Turning to `Oc1ccc2c(c1O)CCC1NCc3ccccc3C21` (centres unmarked), in the assay with dopamine receptors, the “dopamine agonist activity” value was “inactive at dopamine receptors”.
Take `CC(C)c1nc2c(o1)[C@@H]1c3cc(O)c(O)cc3CC[C@H]1NC2` (relative stereo) [Example 50, trans-2-isopropyl-4,5,5a,6,7,11b-hexahydro-1-oxa-3,5-diaza-cyclopent-2-ena[c]phenanthrene-9,10-diol dihydrobromide]: the Ki at dopamine D-1 receptor [1] is 12 nM; at dopamine D-2 receptor (rat caudate, [3H]-spiroperidol), 365 nM. In addition, the midpoint of the response at D-1 receptor, the EC50, lay at 81 nM. Besides, the “Intrinsic Activity (%)” value with D-1 receptor was determined as 108%. Further, the ED50 in [2] was greater than 1 µmol/kg.
On to `CCc1cc2c(o1)CN[C@@H]1CCc3cc(O)c(O)cc3[C@@H]21` (relative stereo) [Example 40, trans-2-Ethyl-4,5,5a,6,7,11b-hexahydro-3-oxa-5-aza-cyclopent-1-ena[c]phenanthrene-9,10-diol hydrochloride], for which the Ki on dopamine D-1 receptor [1] was found to be 15 nM. In addition, on D-1 receptor, the midpoint of the response, the EC50, lay at 37 nM and the “Intrinsic Activity (%)” value amounted to 70%. The ED50 in [2] worked out at 0.12 µmol/kg. Besides, the Ki on dopamine D-2 receptor (rat caudate, [3H]-spiroperidol) amounted to 480 nM.
In the case of `CC(C)C[C@H]1C(=O)N2CCC[C@H]2[C@]2(O)O[C@](NC(=O)[C@@H]3C=C4c5cccc6[nH]c(Br)c(c56)C[C@H]4N(C)C3)(C(C)C)C(=O)N12` [bromocriptine], the “antipsychotic effects” value in the assay on schizophrenia is given as “produce antipsychotic effects”. For the same compound, the “relief of Parkinson's disease symptoms” value in the assay on Parkinson's disease was “relieve Parkinson's disease symptoms in some patients”.
Consider `Cc1nc2c(o1)[C@@H]1c3cc(O)c(O)cc3CC[C@H]1NC2` (relative stereo) [Example 51, trans-2-Methyl-4,5,5a,6,7,11b-hexahydro-1-oxa-3,5-diaza-cyclopent-2-ena[c]phenanthrene-9,10-diol], for which the Ki on dopamine D-1 receptor [1] came to 11 nM; on dopamine D-2 receptor (rat caudate, [3H]-spiroperidol), 382 nM. This compound came in with an EC50 at D-1 receptor of 65 nM. Also, the “Intrinsic Activity (%)” value in the assay with D-1 receptor amounted to 100%. Moreover, in assay [2], the ED50 came out at 0.33 µmol/kg.
Turning to `CN1CCc2cccc3c2[C@H]1Cc1ccc(O)c(O)c1-3` [apomorphine], the “antipsychotic effects” value in the assay on schizophrenia is listed as “produce antipsychotic effects”.
For `Oc1cc2c(cc1O)C1c3ccccc3CNC1CC2` (centres unmarked) [dihydrexidine], the “dopamine agonist activity” value in the assay on dopamine receptors was “active as a dopamine agonist”.
Turning to `CCc1cc2c(o1)[C@@H]1c3cc(O)c(O)cc3CC[C@H]1NC2` (relative stereo) [Example 55, trans-2-ethyl-4,5,5a,6,7,11b-hexahydro-1-oxa-5-aza-cyclopent-2-ena[c]phenanthrene-9,10-diol hydrochloride], at D-1 receptor, the concentration for a half-maximal effect (EC50) was determined as 64 nM and the “Intrinsic Activity (%)” value is recorded as 92%. Moreover, the ED50 in [2] worked out at 0.17 µmol/kg. For the same compound, on dopamine D-1 receptor [3], the inhibitory constant (Ki) stood at 10 nM. On dopamine D-2 receptor (rat caudate, [3H]-spiroperidol), the inhibitory constant (Ki) was 368 nM.
For `Cc1sc2c(c1C)CN[C@H]1CCc3cc(O)c(O)cc3[C@H]21` (relative stereo) [Example 21, trans-2,3-dimethyl-4,5,5a,6,7,11b-hexahydro-1-thia-5-aza-cyclopent-2-ena[c]phenanthrene-9,10-diol hydrobromide], the inhibition constant Ki on dopamine D-1 receptor [1] worked out at 15 nM; on dopamine D-2 receptor, 66 nM. Besides, the “Intrinsic Activity (%)” value in the assay on D-1 receptor is on record as 95%. This compound had a concentration giving a half-maximal response (EC50) on D-1 receptor (setting [4]) of 182 nM.
For the compound `Oc1cc2c(cc1O)C1c3cc(C45CC6CC(CC(C6)C4)C5)sc3CNC1CC2` (centres unmarked) [Example 47, 2-(Adamantyl)-4,5,5a,6,7,11b-hexahydro-3-thia-5-aza-cyclopent-1-ena[c]phenanthrene-9,10-diol hydrobromide], the Ki on dopamine D-1 receptor [1] (rat caudate, [125I]SCH-23982) was greater than 10000 nM; on dopamine D-2 receptor (rat caudate, [3H]-spiroperidol), greater than 5000 nM.
For `Oc1cc2c(cc1O)[C@H]1c3sc(C(F)(F)F)nc3CN[C@@H]1CC2` (relative stereo) [Example 28, trans-2-Trifluoromethyl-4,5,5a,6,7, 11b-hexahydro-1-thia-3,5-diaza-cyclopent-2-ena[c]phenanthrene-9,10-diol], the “Intrinsic Activity (%)” value in the assay on D-1 receptor turned out to be 77%. This compound gave an EC50 at D-1 receptor (setting [4]) of 202 nM. In [2], the ED50 stood at 0.4 µmol/kg. For the same compound, the Ki at dopamine D-1 receptor [3] was 52 nM; at dopamine D-2 receptor (rat caudate, [3H]-spiroperidol), greater than 5000 nM.
